Test results reported in patent US6723747B2, “Substituted 6H-DiBenzo[c,h]chromenes as estrogenic agents” (Wyeth, priority 2001, dated 2004).

Experiments:
human ERβ = target: T1, human ERβ (Homo sapiens, UniProt Q92731); experiment: Radioligand binding competition with [3H]-17β-estradiol, ERβ; conditions: human ERβ ligand binding domain, read-out: ER-β IC50
T1 construct: M214-Q530 of human ERβ; Flag (C); made in house; host or cells: E. coli BL21(DE3), clarified lysate

[1] = system: progesterone receptor mRNA in the preoptic area of the rat brain; experiment: Progesterone receptor mRNA regulation test procedure; format: in vivo; conditions: 10 mg/kg, vehicle 189.2 ± 27.2
Source text: This test procedure can be used to evaluate the estrogenic or antiestrogenic activity of compounds from this invention [Shughrue, et al., Endocrinology 138: 5476-5484 (1997)].

Lewis rats = experiment: Lewis rat adjuvant-induced arthritis, treatment test procedure; format: in vivo; conditions: for joint inflammation score (maximal score per day 12): 10 mg/kg sc daily, treatment begun Day 8 after adjuvant
HLA-B27 rats = experiment: HLA-B27 rat model of arthritis; format: in vivo; conditions: 10 mg/kg orally once daily, Study 2
Source text: The degree of arthritis severity is monitored daily in terms of the following disease indices: Hindpaw erythema, hindpaw swelling, tenderness of the joints, and movements and posture. An integer scale of 0 to 3 is used to quantify the level of erythema (0=normal paw, 1=mild erythema, 2=moderate erythema, 3=severe erythema) and swelling (0=normal paw, 1=mild swelling, 2=moderate swelling, 3=severe swelling of the hind paw). The maximal score per day is 12.
Evaluation in the HLA-B27 Rat model of arthritis. Representative compounds of the invention were evaluated in the HLA-B27 rat standard pharmacological test procedure which emulates arthritis in humans. The following briefly describes the procedure used and results obtained. Male HLA-B27 rats (8-10 weeks old) were obtained from Taconic and provided unrestricted access to a food (PMI Lab diet 5001) and water. Rats were dosed orally once daily with either vehicle (2% tween-80/0.5% methylcellulose) or test compound (10 mg/kg) for 26 days. Joint scores and histology are evaluated as described above for the Lewis rat model of adjuvant-induced arthritis.

[2] = tarsal joints, 10 mg/kg, vehicle 2.58 ± 0.38

T1 sequence (Q92731 214-530): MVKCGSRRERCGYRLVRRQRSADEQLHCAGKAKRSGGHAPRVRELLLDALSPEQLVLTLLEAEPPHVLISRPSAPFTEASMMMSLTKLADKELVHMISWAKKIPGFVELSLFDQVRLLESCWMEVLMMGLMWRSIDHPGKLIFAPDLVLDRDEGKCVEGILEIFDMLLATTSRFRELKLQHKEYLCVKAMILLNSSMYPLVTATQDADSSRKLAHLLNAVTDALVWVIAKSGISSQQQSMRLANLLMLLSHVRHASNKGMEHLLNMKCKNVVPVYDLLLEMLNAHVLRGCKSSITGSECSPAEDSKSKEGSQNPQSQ

IC50 (human ERβ): 1.8 nM
Compound: N#Cc1cc2c(c3ccc(O)cc13)OCc1cc(O)ccc1-2 [Example 1d, 2,8-Dihydroxy-6H-dibenzo[c,h]chromene-12-carbonitrile]
Progesterone receptor mRNA (mean ± stdev) [1]: 403.9 ± 19.1 arbitrary units | joint inflammation score (maximal score per day 12) (Lewis rats; day 1, vehicle 10.83): 11.33 | joint inflammation score (maximal score per day 12) (Lewis rats; day 2, vehicle 11.00): 11.15 | joint inflammation score (maximal score per day 12) (Lewis rats; day 3, vehicle 10.83): 11.33 | joint inflammation score (maximal score per day 12) (Lewis rats; day 4, vehicle 11.33): 9.83 | joint inflammation score (maximal score per day 12) (Lewis rats; day 5, vehicle 11.50): 8.83 | joint inflammation score (maximal score per day 12) (Lewis rats; day 6, vehicle 11.50): 7.83 | joint inflammation score (maximal score per day 12) (Lewis rats; day 7, vehicle 11.50): 6.16 | joint inflammation score (maximal score per day 12) (Lewis rats; day 8, vehicle 11.50): 5.00 | joint inflammation score (maximal score per day 12) (Lewis rats; day 9, vehicle 11.00): 4.33 | joint inflammation score (maximal score per day 12) (Lewis rats; day 10, vehicle 11.00): 2.66 | joint inflammation score (maximal score per day 12) (Lewis rats; day 11, vehicle 10.66): 1.83 | joint inflammation score (maximal score per day 12) (Lewis rats; day 12, vehicle 10.66): 1.83 | joint inflammation score (maximal score per day 12) (Lewis rats; day 13, vehicle 10.50): 2.66 | joint inflammation score (maximal score per day 12) (Lewis rats; day 14, vehicle 9.83): 2.66 | joint inflammation score (maximal score per day 12) (Lewis rats; day 15, vehicle 8.10): 2.00 | joint inflammation score (maximal score per day 12) (Lewis rats; day 16, vehicle 7.35): 2.00 | joint inflammation score (maximal score per day 12) (Lewis rats; day 17, vehicle 6.50): 1.50 | Tidemark Integrity (0-1), Mankin score (Lewis rats; tarsal joints, 10 mg/kg, vehicle 0): 0 | Pannus (0-1), synovitis histological score, mean ± SD (Lewis rats; tarsal joints, 10 mg/kg, vehicle 1.00 ± 0.89): 0.08 ± 0.20 | Fibroplasia (0-3), synovitis histological score, mean ± SD (Lewis rats; tarsal joints, 10 mg/kg, vehicle 1.75 ± 0.42): 0.75 ± 0.42 | Saffranin-O/Fast Green Staining (0-4), Mankin score, mean ± SD (Lewis rats; tarsal joints, 10 mg/kg, vehicle 2.50 ± 0.32): 1.25 ± 0.61 | Cartilage Cells (0-3), Mankin score, mean ± SD (Lewis rats; [2]): 0.58 ± 0.38 | Synovial Structure (0-3), synovitis histological score, mean ± SD (Lewis rats; [2]): 1.75 ± 0.52 | Cartilage Structure (0-6), Mankin score, mean ± SD (Lewis rats; tarsal joints, 10 mg/kg, vehicle 2.83 ± 0.26): 1.67 ± 0.41 | Inflammatory Cells (0-3), synovitis histological score, mean ± SD (Lewis rats; tarsal joints, 10 mg/kg, vehicle 2.92 ± 0.20): 1.33 ± 0.41 | Total Mankin Score (0-14), mean ± SD (Lewis rats; tarsal joints, 10 mg/kg, vehicle 7.92 ± 0.74): 3.50 ± 1.27 | Total Synovitis Score (0-10), mean ± SD (Lewis rats; tarsal joints, 10 mg/kg, vehicle 8.25 ± 1.57): 3.92 ± 1.36 | joint inflammation score (HLA-B27 rats; day 1, vehicle 0): 0 | joint inflammation score (HLA-B27 rats; day 2, vehicle 0): 0 | joint inflammation score (HLA-B27 rats; day 3, vehicle 0): 0 | joint inflammation score (HLA-B27 rats; day 4, vehicle 0): 0 | joint inflammation score (HLA-B27 rats; day 5, vehicle 0): 0 | joint inflammation score (HLA-B27 rats; day 6, vehicle 0): 0 | joint inflammation score (HLA-B27 rats; day 7, vehicle 0): 0 | joint inflammation score (HLA-B27 rats; day 8, vehicle 2.5): 2 | joint inflammation score (HLA-B27 rats; day 9, vehicle 3.75): 1.25 | joint inflammation score (HLA-B27 rats; day 10, vehicle 2.75): 1 | joint inflammation score (HLA-B27 rats; day 11, vehicle 3.5): 0 | joint inflammation score (HLA-B27 rats; day 12, vehicle 1.25): 0.5 | joint inflammation score (HLA-B27 rats; day 13, vehicle 1.25): 0.25 | joint inflammation score (HLA-B27 rats; day 14, vehicle 1.25): 0 | joint inflammation score (HLA-B27 rats; day 15, vehicle 5.25): 0.25 | joint inflammation score (HLA-B27 rats; day 16, vehicle 4.5): 1 | joint inflammation score (HLA-B27 rats; day 17, vehicle 3.5): 1 | joint inflammation score (HLA-B27 rats; day 18, vehicle 3.75): 0.5 | joint inflammation score (HLA-B27 rats; day 19, vehicle 5.5): 0.75 | joint inflammation score (HLA-B27 rats; day 22, vehicle 3.25): 0.25 | joint inflammation score (HLA-B27 rats; day 23, vehicle 6.5): 2 | joint inflammation score (HLA-B27 rats; day 24, vehicle 6.5): 2 | joint inflammation score (HLA-B27 rats; day 25, vehicle 6.25): 2 | joint inflammation score (HLA-B27 rats; day 26, vehicle 7): 1.75
